Assay [1] concerns the target human SOS1 (nucleotide exchange of K-Ras^G12C) (Homo sapiens, UniProt Q07889). The assay can be described thus: Biochemical assay 2: K-Ras^G12C activation assay by hSOS1 at high GTP concentration (HTRF). The following applies: high GTP; for IC50: read-out: Assay 2 (KRAS-Activation by SOS high GTP) activity expressed as IC50; for inhibition at 20 µM: read-out: Assay 2 (KRAS-Activation by SOS high GTP) activity expressed as % inhibition at 20 μM.

For assay [2], the target named is Epidermal Growth Factor Receptor (EGFR) (Homo sapiens (Human), UniProt P00533). The assay can be described thus: EGFR kinase assay (TR-FRET). In kind it is biochemical. As to conditions: read-out: EGFR kinase inhibition IC50. Summed up:
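EGFR purified from A431 cells was preincubated with compound 15 min at 22° C in pH 7.0 Hepes buffer with MgCl2, MnCl2 and vanadate before reaction with a biotinylated peptide. After EDTA stop, phosphopeptide was detected by TR-FRET (anti-phosphotyrosine Tb-cryptate, streptavidin-XL665) as the 665/620 nm emission ratio.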
Background: In TR-FRET formats the signal depends on donor and acceptor labels being close together.

The results in this text go back to patent US20240083857A1, “2-Methyl-Quinazolines” (Bayer Pharma Aktiengesellschaft, priority 2017, published 2024).

As usually defined, the IC50 is the midpoint of a concentration-inhibition curve. What is called inhibition is the drop in the measured response relative to a control, in per cent.

Read-outs that look alike come from different tables or passages of the source.

Epidermal Growth Factor Receptor (EGFR), sequence (P00533 25-1210): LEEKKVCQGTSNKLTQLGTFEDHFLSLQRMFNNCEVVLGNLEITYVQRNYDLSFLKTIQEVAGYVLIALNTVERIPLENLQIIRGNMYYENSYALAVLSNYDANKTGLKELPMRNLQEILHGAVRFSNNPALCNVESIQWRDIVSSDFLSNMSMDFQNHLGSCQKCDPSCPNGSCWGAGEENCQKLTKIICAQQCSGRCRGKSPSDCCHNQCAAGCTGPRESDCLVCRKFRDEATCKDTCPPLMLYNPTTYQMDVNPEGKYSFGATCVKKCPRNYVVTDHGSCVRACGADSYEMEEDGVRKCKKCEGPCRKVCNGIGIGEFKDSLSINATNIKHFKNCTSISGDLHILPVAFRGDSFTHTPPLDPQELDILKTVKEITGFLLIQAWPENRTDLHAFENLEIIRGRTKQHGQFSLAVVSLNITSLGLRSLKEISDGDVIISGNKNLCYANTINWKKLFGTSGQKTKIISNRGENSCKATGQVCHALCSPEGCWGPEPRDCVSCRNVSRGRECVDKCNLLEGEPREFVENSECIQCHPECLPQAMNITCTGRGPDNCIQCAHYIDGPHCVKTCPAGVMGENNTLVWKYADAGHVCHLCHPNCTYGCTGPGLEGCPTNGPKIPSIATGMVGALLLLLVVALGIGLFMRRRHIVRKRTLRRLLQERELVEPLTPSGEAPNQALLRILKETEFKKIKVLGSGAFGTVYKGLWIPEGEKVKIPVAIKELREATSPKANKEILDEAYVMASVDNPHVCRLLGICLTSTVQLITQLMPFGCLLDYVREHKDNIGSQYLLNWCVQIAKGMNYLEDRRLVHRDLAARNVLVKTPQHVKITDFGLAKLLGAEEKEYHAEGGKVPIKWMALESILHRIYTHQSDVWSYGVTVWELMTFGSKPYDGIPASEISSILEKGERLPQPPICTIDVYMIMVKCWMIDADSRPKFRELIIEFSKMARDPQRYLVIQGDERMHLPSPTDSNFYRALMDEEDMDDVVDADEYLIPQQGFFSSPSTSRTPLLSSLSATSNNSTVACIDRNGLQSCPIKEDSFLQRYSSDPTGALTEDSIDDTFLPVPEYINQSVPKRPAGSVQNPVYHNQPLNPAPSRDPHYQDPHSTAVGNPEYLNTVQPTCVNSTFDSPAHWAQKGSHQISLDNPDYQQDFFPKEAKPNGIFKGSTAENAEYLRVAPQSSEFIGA

As to `COc1cc2nc(C)nc(NC(C)c3cccc4c3CCCC4)c2cc1OC` (centres unmarked) [Example 11, 6,7-dimethoxy-2-methyl-N-[1-(5,6,7,8-tetrahydronaphthalen-1-yl)ethyl]quinazolin-4-amine], the figures for the IC50 in assay [1] and in assay [2] (values given in μM) were 0.221 µM and above 20 µM, respectively.

Regarding `COc1cc2nc(C)nc(NC(C)c3cc(C)c(Br)s3)c2cc1OC` (centres unmarked) [Example 183, N-[1-(5-bromo-4-methylthiophen-2-yl)ethyl]-6,7-dimethoxy-2-methylquinazolin-4-amine], the results for the IC50 in assay [1] and in assay [2] (values given in μM) were 4.2 µM and above 20 µM, respectively.

As for `COc1cc2nc(C)nc(NC(C)c3ccc(-c4ccccc4CN4CCCC4)s3)c2cc1OC` (centres unmarked) [Example 184, 6,7-dimethoxy-2-methyl-N-[1-{5-[2-(pyrrolidin-1-ylmethyl)phenyl]thiophen-2-yl}ethyl]quinazolin-4-amine], the IC50 was 0.106 µM in assay [1] and above 20 µM in assay [2] (values given in μM).

Take `COc1cc2nc(C)nc(NC(C)c3ccc(-c4cccc(CCO)c4)s3)c2cc1OC` (centres unmarked) [Example 181, 2-[3-(5-{1-[(6,7-dimethoxy-2-methylquinazolin-4-yl)amino]ethyl}thiophen-2-yl)phenyl]ethanol]: the values for the IC50 in assay [1] and in assay [2] (values given in μM) were 6.51 µM and above 20 µM, respectively.

Consider `COc1cc2nc(C)nc(NC(C)c3ccc(-c4cnn(CC(N)=O)c4)s3)c2cc1OC` (centres unmarked) [Example 249, 2-[4-(5-{1-[(6,7-dimethoxy-2-methylquinazolin-4-yl)amino]ethyl}thiophen-2-yl)-1H-pyrazol-1-yl]acetamide], for which the results for the IC50 in assay [1] and in assay [2] (values given in μM) were 5.31 µM and above 20 µM, respectively.

Consider `COc1cc2nc(C)nc(NC(C)c3cc(Br)cc4c3OCC4)c2cc1OC` (centres unmarked) [Example 214, N-[1-(5-bromo-2,3-dihydro-1-benzofuran-7-yl)ethyl]-6,7-dimethoxy-2-methylquinazolin-4-amine], for which the IC50 in assay [1] was 3.96 µM; in assay [2] (values given in μM) it was above 20 µM.

On to `COc1cc2nc(C)nc(NC(C)c3cccc4ccoc34)c2cc1OC` (centres unmarked) [Example 4, N-[1-(1-benzofuran-7-yl)ethyl]-6,7-dimethoxy-2-methylquinazolin-4-amine], for which the figures for the IC50 in assay [1] and in assay [2] (values given in μM) were 0.243 µM and above 20 µM, respectively.

Turning to `COc1cc2nc(C)nc(N[C@H](C)c3ccc(S(C)(=O)=O)cc3)c2cc1OC` [Example 188, 6,7-dimethoxy-2-methyl-N-{(1R)-1-[4-(methylsulfonyl)phenyl]ethyl}quinazolin-4-amine], the IC50 in assay [1] is 16.7 µM; in assay [2] (values given in μM), above 20 µM.

`COc1cc2nc(C)nc(NC(C)c3cc4cccc(O)c4o3)c2cc1OC` (centres unmarked) [Example 28, 2-{-[(6,7-dimethoxy-2-methyquinazolin-4-yl)amino]ethyl}-1-benzofuran-7-ol]: the inhibition at 20 µM in assay [1] was found to be 8%. In assay [2] (values given in μM), the IC50 is above 20 µM.

As for `COc1cc2nc(C)nc(NC(C)c3cccc(Oc4ccccc4)c3)c2cc1OC` (centres unmarked) [Example 215, 6,7-dimethoxy-2-methyl-N-[1-(3-phenoxyphenyl)ethyl]quinazolin-4-amine], the half-maximal inhibitory concentration (IC50) worked out at 1.16 µM in assay [1] and 2.57 µM in assay [2] (unit inferred).

Take `COc1cc2nc(C)nc(NC(C)c3ccc(-c4ccccc4CCO)s3)c2cc1OC` (centres unmarked) [Example 180, 2-[2-(5-{1-[(6,7-dimethoxy-2-methylquinazolin-4-yl)amino]ethyl}thiophen-2-yl)phenyl]ethanol]: the IC50 in assay [1] is 0.921 µM; in assay [2] (values given in μM), above 20 µM.

For the molecule `COc1cc2nc(C)nc(NC(C)c3ccc(-c4cc[nH]n4)s3)c2cc1OC` (centres unmarked) [Example 222, 6,7-dimethoxy-2-methyl-N-{1-[5-(1H-pyrazol-3-yl)thiophen-2-yl]ethyl}quinazolin-4-amine], the IC50 in assay [1] was 4.44 µM; in assay [2] (values given in μM), above 20 µM.

Consider `COc1cc2nc(C)nc(NC(C)c3ccc(F)c4[nH]ncc34)c2cc1OC` (centres unmarked) [Example 5, N-[1-(7-fluoro-1H-indazol-4-yl)ethyl]-6,7-dimethoxy-2-methylquinazolin-4-amine], for which the IC50 in assay [1] was 1.3 µM; in assay [2] (values given in μM) it was above 20 µM.

For the molecule `COc1cc2nc(C)nc(NC(C)c3ccc(C4=CCOCC4)s3)c2cc1OC` (centres unmarked) [Example 235, N-{1-[5-(3,6-dihydro-2H-pyran-4-yl)thiophen-2-yl]ethyl}-6,7-dimethoxy-2-methylquinazolin-4-amine], the IC50 is 4.72 µM in assay [1] and above 20 µM in assay [2] (values given in μM).

With `COc1cc2nc(C)nc(NC(C)c3ccc(-c4ccccc4)o3)c2cc1OC` (centres unmarked) [Example 213, 6,7-dimethoxy-2-methyl-N-[1-(5-phenylfuran-2-yl)ethyl]quinazolin-4-amine], the IC50 in assay [1] is 6.31 µM; in assay [2] (values given in μM) it was above 20 µM.

As for `COc1cc2nc(C)nc(N[C@H](C)c3ccccc3)c2cc1OC` [Example 206, 6,7-dimethoxy-2-methyl-N-[(1R)-1-phenylethyl]quinazolin-4-amine], the IC50 is 1 µM in assay [1] and above 20 µM in assay [2] (values given in μM).

As for `COc1cc2nc(C)nc(N[C@H](C)c3cccc(C4=CCN(C)CC4)c3)c2cc1OC` [Example 202, 6,7-dimethoxy-2-methyl-N-{(1R)-1-[3-(1-methyl-1,2,3,6-tetrahydropyridin-4-yl)phenyl]ethyl}quinazolin-4-amine], the IC50 in assay [1] is 0.979 µM; in assay [2] (values given in μM) it was above 20 µM.

In the case of `COC(=O)c1ccccc1-c1ccc(C(C)Nc2nc(C)nc3cc(OC)c(OC)cc23)s1` (centres unmarked) [Example 178, methyl 2-(5-{1-[(6,7-dimethoxy-2-methylquinazolin-4-yl)amino]ethyl}thiophen-2-yl)benzoate], the results for the IC50 in assay [1] and in assay [2] (values given in μM) were 5.11 µM and above 20 µM, respectively.

For `COc1cc2nc(C)nc(NC(C)c3ccc(-c4cnn(CCO)c4)s3)c2cc1OC` (centres unmarked) [Example 218, 2-[4-(5-{1-[(6,7-dimethoxy-2-methylquinazolin-4-yl)amino]ethyl}thiophen-2-yl)-1H-pyrazol-1-yl]ethanol], the IC50 in assay [1] was 1.37 µM; in assay [2] (values given in μM), above 20 µM.

For the molecule `COc1cc2nc(C)nc(NC(C)c3ccc(-c4cnn(CCN5CCCC5)c4)s3)c2cc1OC` (centres unmarked) [Example 220, 6,7-dimethoxy-2-methyl-N-[1-(5-{1-[2-(pyrrolidin-1-yl)ethyl]-1H-pyrazol-4-yl}thiophen-2-yl)ethyl]quinazolin-4-amine], the IC50 in assay [1] was 0.381 µM; in assay [2] (values given in μM), above 20 µM.

For the molecule `COc1cc2nc(C)nc(NC(C)c3ccc(-c4ccccc4CN4CCC(C(N)=O)CC4)s3)c2cc1OC` (centres unmarked) [Example 179, 1-[2-(5-{1-[(6,7-dimethoxy-2-methylquinazolin-4-yl)amino]ethyl}thiophen-2-yl)benzyl]piperidine-4-carboxamide], the results for the IC50 in assay [1] and in assay [2] (values given in μM) were 0.245 µM and above 20 µM, respectively.

On to `C=C(C)c1ccc([C@@H](C)Nc2nc(C)nc3cc(OC)c(OC)cc23)cc1` [Example 203, 6,7-dimethoxy-2-methyl-N-{(1R)-1-[4-(prop-1-en-2-yl)phenyl]ethyl}quinazolin-4-amine], for which the IC50 in assay [1] is 1.38 µM; in assay [2] (values given in μM) it was above 20 µM.

With `COc1cc2nc(C)nc(NC(C)c3cccc4nn(C)cc34)c2cc1OC` (centres unmarked) [Example 9, 6,7-dimethoxy-2-methyl-N-[1-(2-methyl-2H-indazol-4-yl)ethyl]quinazolin-4-amine], the figures for the IC50 in assay [1] and in assay [2] (values given in μM) were 1.37 µM and above 20 µM, respectively.

As to `COc1cc2nc(C)nc(NC(C)c3cc(F)cc4[nH]ncc34)c2cc1OC` (centres unmarked) [Example 6, N-[1-(6-fluoro-1H-indazol-4-yl)ethyl]-6,7-dimethoxy-2-methylquinazolin-4-amine], the IC50 in assay [1] was 1.86 µM; in assay [2] (values given in μM), above 20 µM.

On to `COc1cc2nc(C)nc(NC(C)c3cccc(Oc4ccccc4)c3)c2cc1OC` (single isomer, unassigned; enantiomer 1) [Example 228, 6,7-dimethoxy-2-methyl-N-[1-(3-phenoxyphenyl)ethyl]quinazolin-4-amine, Enantiomer 1], for which the figures for the IC50 in assay [1] and in assay [2] (unit inferred) were 0.647 µM and 0.341 µM, respectively.

Consider `COc1cc2nc(C)nc(N[C@H](C)c3cccc(S(C)(=O)=O)c3)c2cc1OC` [Example 198, 6,7-dimethoxy-2-methyl-N-{(1R)-1-[3-(methylsulfonyl)phenyl]ethyl}quinazolin-4-amine], for which the results for the IC50 in assay [1] and in assay [2] (values given in μM) were 0.518 µM and above 20 µM, respectively.

For `COc1cc2nc(C)nc(N[C@H](C)c3ccc(C4=CCN(C)CC4)cc3)c2cc1OC` [Example 201, 6,7-dimethoxy-2-methyl-N-{(1R)-1-[4-(1-methyl-1,2,3,6-tetrahydropyridin-4-yl)phenyl]ethyl}quinazolin-4-amine], in assay [1], the inhibition at 20 µM was determined as 20%. Besides, the IC50 in assay [2] (values given in μM) is above 20 µM.

`COC(=O)c1cc2c(C(C)Nc3nc(C)nc4cc(OC)c(OC)cc34)cccc2s1` (centres unmarked) [Example 3, methyl 4-{1-[(6,7-dimethoxy-2-methylquinazolin-4-yl)amino]ethyl}-1-benzothiophene-2-carboxylate]: the IC50 was 0.115 µM in assay [1] and above 20 µM in assay [2] (values given in μM).

In the case of `COc1cc2nc(C)nc(NC(C)c3ccc(-c4ccccc4CN4CCC(O)C4)s3)c2cc1OC` (centres unmarked) [Example 210, 1-[2-(5-{1-[(6,7-dimethoxy-2-methylquinazolin-4-yl)amino]ethyl}thiophen-2-yl)benzyl]pyrrolidin-3-ol], the IC50 in assay [1] is 0.109 µM; in assay [2] (values given in μM), above 20 µM.

For `Cc1nc(N[C@H](C)c2cccc3ccccc23)c2ccccc2n1` [Example 186, 2-methyl-N-[(1R)-1-(naphthalen-1-yl)ethyl]quinazolin-4-amine], the values for the IC50 in assay [1] and in assay [2] (values given in μM) were 3.31 µM and above 20 µM, respectively.

`COc1cc2nc(C)nc(NC(C)c3cccc4cnn(C)c34)c2cc1OC` (centres unmarked) [Example 10, 6,7-dimethoxy-2-methyl-N-[1-(1-methyl-1H-indazol-7-yl)ethyl]quinazolin-4-amine]: the 50% inhibitory concentration (IC50) in assay [1] is 1.27 µM; in assay [2] (values given in μM) it was above 20 µM.
